Laboratory results reported in ChEMBL document CHEMBL1140144 (J Med Chem, 2008).

Columns and labels:
Protease [1] = biological target: T1, Protease (Human immunodeficiency virus 1, UniProt Q9YQ12); assay: Inhibition of wild type HIV1 protease by competitive binding
Protease [2] = biological target: T1, Protease; assay: Inhibition of wild type HIV1 protease by uncompetitive binding

Compound: CC(C)CN(C[C@@H](O)[C@H](Cc1ccccc1)NC(=O)O[C@H]1CCOC1)S(=O)(=O)c1ccc(N)cc1
- Ki (Protease [1]): 0.0062 µM
- Ki (Protease [2]): 0.028 µM
